Assay results reported in patent US20250324971A1, “HERBICIDAL DERIVATIVES” (SYNGENTA CROP PROTECTION AG, priority 2022, published 2025).

Legend:
Type in all cases: in vivo
Zea mays (ZEAMX) [1] = test: Post-Emergence Test (herbicidal, glasshouse pots); settings: evaluated after 13 days
Procedure: (§1) Seeds of a variety of test species are sown in standard soil in pots (Setaria faberi (SETFA), Ipomoea hederacea (IPOHE), Echinochloa crus-galli (ECHCG), (Amaranthus retoflexus (AMARE), Zea mays (ZEAMX), and Amaranthus palmeri (AMAPA)). After 8 days cultivation under controlled conditions in a glasshouse (at 24° C./16° C., day/night; 14 hours light; 65% humidity), the plants arm sprayed with an aqueous spray solution derived from the formulation of the technical active ingredient in acetone/water (50:50) solution containing 0.5% Tween 20 (polyoxyethylene sorbitan monolaurate, CAS RN 9005-84-5). Rate of application is shown in g/ha in the tables below. The test plants are then grown in a glasshouse under controlled conditions in a glasshouse (at 24° C./16° C., day/night; 14 hours light; 65% humidity) and watered twice daily. After 13 days the test is evaluated for the percentage damage caused to the plant. The biological activities are shown in the following table on a five-point scale (5=81-100%; 4=61-80%; 3=41-60%; 2=21-40%; 1=0-20%; -=not tested).

[2] = test system: Amaranthus retoflexus (AMARE); test: Post-Emergence Test (herbicidal, glasshouse pots); settings: evaluated after 13 days
Procedure: as §1

[3] = test system: Echinochloa crus-galli (ECHCG); test: Post-Emergence Test (herbicidal, glasshouse pots); settings: evaluated after 13 days
Procedure: as §1

[4] = test system: Amaranthus palmeri (AMAPA); test: Post-Emergence Test (herbicidal, glasshouse pots); settings: evaluated after 13 days
Procedure: as §1

[5] = test system: Ipomoea hederacea (IPOHE); test: Post-Emergence Test (herbicidal, glasshouse pots); settings: evaluated after 13 days
Procedure: as §1

[6] = test system: Echinochloa crus-galli (ECHCG); test: Pre-Emergence Test (herbicidal, glasshouse pots); settings: rate 1000 g/ha, evaluated after 13 days, five-point scale
[7] = test system: Amaranthus palmeri (AMAPA); test: Pre-Emergence Test (herbicidal, glasshouse pots); settings: rate 1000 g/ha, evaluated after 13 days, five-point scale
Zea mays (ZEAMX) [8] = test: Pre-Emergence Test (herbicidal, glasshouse pots); settings: rate 1000 g/ha, evaluated after 13 days, five-point scale
[9] = test system: Amaranthus retoflexus (AMARE); test: Pre-Emergence Test (herbicidal, glasshouse pots); settings: rate 1000 g/ha, evaluated after 13 days, five-point scale
[10] = test system: Ipomoea hederacea (IPOHE); test: Pre-Emergence Test (herbicidal, glasshouse pots); settings: rate 1000 g/ha, evaluated after 13 days, five-point scale

SMILES	Post-Emergence Test ZEAMX percentage damage (five-point scale) (Zea mays (ZEAMX) [1]; rate 1000 g/ha)	Post-Emergence Test AMARE percentage damage (five-point scale) ([2]; rate 1000 g/ha)	Post-Emergence Test ECHCG percentage damage (five-point scale) ([3]; rate 1000 g/ha)	Post-Emergence Test AMAPA percentage damage (five-point scale) ([4]; rate 1000 g/ha)	Post-Emergence Test IPHOE percentage damage (five-point scale) ([5]; rate 1000 g/ha)	percentage damage caused to the plant, ECHCG [6]	percentage damage caused to the plant, AMAPA [7]	percentage damage caused to the plant, ZEAMX (Zea mays (ZEAMX) [8])	percentage damage caused to the plant, AMARE [9]	percentage damage caused to the plant, IPHOE [10]	Post-Emergence Test ZEAMX percentage damage (five-point scale) (Zea mays (ZEAMX) [1]; rate 250 g/ha)	Post-Emergence Test AMARE percentage damage (five-point scale) ([2]; rate 250 g/ha)	Post-Emergence Test ECHCG percentage damage (five-point scale) ([3]; rate 250 g/ha)	Post-Emergence Test AMAPA percentage damage (five-point scale) ([4]; rate 250 g/ha)	Post-Emergence Test IPHOE percentage damage (five-point scale) ([5]; rate 250 g/ha)
CCn1c(Nc2cccc(C)n2)cc(=O)c(C(=O)O)c1-c1ccc(Cl)c(Cl)c1 [Compound 32, 2-(3,4-dichlorophenyl)-1-ethyl-6-[(6-methyl-2-pyridyl)amino]-4-oxo-pyridine-3-carboxylic acid]	1 (1=0-20%)	4 (4=61-80%)	2 (2=21-40%)	3 (3=41-60%)	1 (1=0-20%)	–	–	–	–	–	–	–	–	–	–
CCn1c(Oc2cccnc2F)cc(=O)c(C(=O)O)c1-c1ccc(Cl)c(Cl)c1 [Compound 34, 2-(3,4-dichlorophenyl)-1-ethyl-6-[(2-fluoro-3-pyridyl)oxy]-4-oxo-pyridine-3-carboxylic acid]	3 (3=41-60%)	3 (3=41-60%)	4 (4=61-80%)	3 (3=41-60%)	2 (2=21-40%)	4 (4=61-80%)	2 (2=21-40%)	4 (4=61-80%)	3 (3=41-60%)	3 (3=41-60%)	–	–	–	–	–
CCn1c(Oc2cc(Cl)cc(Cl)c2)cc(=O)c(C(=O)O)c1-c1ccc(Cl)c(Cl)c1 [Compound 16, 6-(3,5-dichlorophenoxy)-2-(3,4-dichlorophenyl)-1-ethyl-4-oxo-pyridine-3-carboxylic acid]	1 (1=0-20%)	2 (2=21-40%)	1 (1=0-20%)	1 (1=0-20%)	2 (2=21-40%)	–	–	–	–	–	–	–	–	–	–
CCn1c(Nc2ccc(C3CC3)cc2)cc(=O)c(C(=O)O)c1-c1ccc(Cl)c(Cl)c1 [Compound 22]	–	–	–	–	–	0	0	0	1 (1=0-20%)	0	–	–	–	–	–
CCn1c(Oc2cccc(Cl)c2Cl)cc(=O)c(C(=O)O)c1-c1ccc(Cl)c(Cl)c1 [Compound 17, 6-(2,3-dichlorophenoxy)-2-(3,4-dichlorophenyl)-1-ethyl-4-oxo-pyridine-3-carboxylic acid]	1 (1=0-20%)	1 (1=0-20%)	1 (1=0-20%)	1 (1=0-20%)	0	0	0	1 (1=0-20%)	0	0	–	–	–	–	–
CCn1c(Oc2cncc(Cl)c2)cc(=O)c(C(=O)O)c1-c1ccc(Cl)c(Cl)c1 [Compound 13, 6-[(5-chloro-3-pyridyl)oxy]-2-(3,4-dichlorophenyl)-1-ethyl-4-oxo-pyridine-3-carboxylic acid]	4 (4=61-80%)	5 (5=81-100%)	5 (5=81-100%)	4 (4=61-80%)	4 (4=61-80%)	4 (4=61-80%)	4 (4=61-80%)	2 (2=21-40%)	5 (5=81-100%)	5 (5=81-100%)	–	–	–	–	–
CCn1c(OC)cc(=O)c(C(=O)O)c1-c1ccc(Cl)c(Cl)c1 [Compound 5, 2-(3,4-dichlorophenyl)-1-ethyl-6-methoxy-4-oxo-pyridine-3-carboxylic acid]	–	–	–	–	–	–	–	–	–	–	2 (2=21-40%)	0	3 (3=41-60%)	0	3 (3=41-60%)
